Legend:
[1] = test system: A431 cells; experiment: Crystal violet staining cell proliferation assay; type: cell-based, human; details: dose-dependent, several days
Description: (§1) Cells were exposed to EGF (10 ng/ml) and treated with increasing concentrations of compound 1. Representative photographs are shown and data are presented as mean values±S.D. from triplicate experiments. […] Cells were treated with different concentrations of compound 1 for several days and cell proliferation was determined by a crystal violet staining assay.
(§2) Cell proliferation was determined by a crystal violet staining assay. Cells (3×10^4/well) were seeded into 24-well plates. After an overnight incubation, cells were treated with different concentrations of compound 1 and incubated for several days. Then, each well was washed 3 times with phosphate buffered saline (PBS) and stained with 0.2% (w/v) crystal violet in 2% (v/v) ethanol. After 10 min, cells were washed 3 times with distilled water, and the remaining dye was dissolved in 0.5% (w/v) sodium dodecyl sulfate in 50% (v/v) ethanol. Absorbance was measured at an optical density of 540 nm using the Thermo Multiskan plate-reader (Thermo Fisher Scientific).

[2] = test system: SCC12 cells; experiment: Crystal violet staining cell proliferation assay; type: cell-based, human; details: dose-dependent, several days
Description: as §1, §2

[3] = test system: AP-1 activity in JB6 P+ cells; experiment: AP-1 luciferase reporter assay, SUV-induced; type: cell-based, mouse; details: JB6 P+ cells, 1.25, 2.5 or 5 μM, dose-dependently
Description: The cells were cultured, treated for 4 h with different concentrations of compound 1 and then exposed to SUV (60 kJ UVA/m^2 and 2.9 kJ UVB/m^2), followed by an additional 15-minute incubation. Cells were harvested and the levels of phosphorylated and total proteins were determined by Western blot analysis with specific antibodies as indicated. […] The cells were cultured and treated with different concentrations of compound 1 for 24 h. Cells were harvested and the levels of phosphorylated and total proteins were determined by Western blot analysis with specific antibodies as indicated. […] For the luciferase assay, JB6 P+ cells stably transfected with an AP-1 luciferase reporter plasmid were cultured. After starvation for 24 h, cells were treated for 1 h with compound 1 (0, 1.25, 2.5, or 5 μM). Cells were then exposed to SUV (60 kJ UVA/m^2 and 2.9 kJ UVB/m^2) and harvested 3 h later. Luciferase activity was measured and AP-1 activity is expressed relative to control cells without SUV treatment. […] Knockdown of TOPK in A431 cell line (left). […] Luciferase and 3-galactosidase activities were measured using reagents included in the reporter assay system (right). […] Significant differences were evaluated using one-way ANOVA and the asterisks (*) indicate a significant effect (*, p<0.05; **, p<0.001; ***, p<0.0001). […]

[4] = test system: AP-1 activity in A431 cells; experiment: AP-1 luciferase reporter assay in control or TOPK knockdown cells; type: cell-based, human
Description: The cells were cultured, treated for 4 h with different concentrations of compound 1 and then exposed to SUV (60 kJ UVA/m^2 and 2.9 kJ UVB/m^2), followed by an additional 15-minute incubation. Cells were harvested and the levels of phosphorylated and total proteins were determined by Western blot analysis with specific antibodies as indicated. […] The cells were cultured and treated with different concentrations of compound 1 for 24 h. Cells were harvested and the levels of phosphorylated and total proteins were determined by Western blot analysis with specific antibodies as indicated. […] For the luciferase assay, JB6 P+ cells stably transfected with an AP-1 luciferase reporter plasmid were cultured. […] Luciferase activity was measured and AP-1 activity is expressed relative to control cells without SUV treatment. […] Luciferase and 3-galactosidase activities were measured using reagents included in the reporter assay system (right). […] Significant differences were evaluated using one-way ANOVA and the asterisks (*) indicate a significant effect (*, p<0.05; **, p<0.001; ***, p<0.0001). […]
Stable control or TOPK knockdown cells were co-transfected with 100 ng of the AP-1 luciferase reporter plasmid and 50 ng of an internal control […] plasmid. […] Luciferase and β-galactosidase activities were measured using the Luminoskan Ascent and Multiskan MCC (Labsystems), respectively. […]

O=C1Nc2ccc(C34CC5CC(CC(C5)C3)C4)cc2C1=NO [compound 1, 5-(adamantan-1-yl)-3-(hydroxyimino)indolin-2-one]
cell proliferation [1]: strongly decreased | cell proliferation [2]: strongly decreased | SUV-induced transactivation of AP-1 [3]: inhibited | AP-1 activity ([4]; A431 TOPK knockdown group, highest concentration (5 μM)): only slightly affected | AP-1 activity ([4]; A431 control group, 24 h): inhibited by compound 1 in a dose-dependent manner
